Test results from patent US11013232B2, “Hydrotesting and mothballing composition and method of using combination products for multifunctional water treatment” (priority 2014, dated 2021).

Columns and labels:
[1] = system: Sulfate Reducing Bacteria (SRB); experiment: Most Probable Number (MPN) bacterial kill efficacy, SRB; type: cell-based, mixed consortia isolated from seawater; conditions: first MPN set; for SRB per mL: formulation with ammonium bisulfide, 500 ppm active biocide
Description: (§1) The Most Probably Number technique using a bacterial enumeration technique was performed, as described in NACE International Standard TMP 194-2004. Complex mixed consortia were isolated from seawater and subjected to the chemicals being tested. All chemicals were applied at the same active concentration. Surviving cells were assayed after exposure periods of 1, 7 and 28 days to the numbers compared with a control which received no treatments. The bottle tests were carried out using two mixed consortia—Sulfate Reducing Bacteria (SRB) and General Heterotrophic Bacteria (GHB) that also measured Acid Producing Bacteria (APB) enriched from seawater. Aliquots of the water (1 mL) were inoculated into SRB culture medium and GHB culture medium (Phenol Red Dextrose broth) respectively and sub-cultured twice. The cultures used in the tests were incubated at 30° C. for five days; these were then used to supplement seawater to achieve 10^3 to 10^4 SRB cells per mL. For the trial one control bottle and four test bottles were set up. The chemicals were added to the appropriate test bottles to give the final concentrations of each product as supplied. All chemicals were added so that 500 ppm of active biocide was present in each test. The control bottle contained seawater only with no added chemical.
(§2) At each time point, (one, seven and twenty-eight days), a sample was removed from each test bottle and the control bottle and used to inoculate the MPN vials. Bacterial counts were performed using the triplicate Most Probable Number method (triplicate MPNs). The inoculated MPN vials were incubated at 30° C. for 7 days for GHB and APB and 28 days for SRB. Results have been reported as cells per mL. […]

[2] = system: Acid Producing Bacteria (APB); experiment: Most Probable Number (MPN) bacterial kill efficacy, APB; type: cell-based, mixed consortia isolated from seawater; conditions: first MPN set; for APB per mL: formulation with ammonium bisulfide, 500 ppm active biocide
Description: as §1, §2

[3] = system: General Heterotrophic Bacteria (GHB); experiment: Most Probable Number (MPN) bacterial kill efficacy, GHB; type: cell-based, mixed consortia isolated from seawater; conditions: first MPN set; for GHB per mL: formulation with ammonium bisulfide, 500 ppm active biocide; for log reduction of planktonic GHB: exposure time of 24 hours
Description: as §1, §2

[4] = system: 5 species of bacteria in a simulated marine environment; experiment: Molecular technique biocidal properties (qPCR of 16s rDNA); type: cell-based; conditions: for 7 day DNA (copies) / 14 day DNA (copies) / 21 day DNA (copies): dose rate 500 ppm
Description: Molecular techniques were performed on the best performing (Formulation 3) commercial product and the embodiments of the invention Formulation 1 and Formulation 2. This aim of the study was to investigate the efficiency of the biocides on inhibiting 5 species of bacteria in a simulated marine environment. This study was conducted over a 21 day period and involved several marine species of bacteria which have all been previously linked with attributing to corrosion. […] A control was used in the testing and glutaraldehyde was selected for this role.
For each species 3 individual inoculums for each replicate were grown from an isolated single colony picked from agar plates. The species used were Desulfovibrio desulfricans (SRB), Shewanella putrefaciens (IRB), Thiobacillus thioparus (SOB), Pseudomonas aeruginosa (biofilm) and Methanolibacter arachidis (methanogens). Following 24 hours of incubation on an orbital shaker, cells were centrifuged and the pelleted cells washed with phosphate buffered saline (PBS). Washed cells were then suspended in PBS and measured to a set optical density via UV spectrometry at 600 nm. Each species was then used to inoculate cultures to give a final starter concentration of 0.01 at 600 nm. Each treatment was conducted in triplicate with each replicate being started at alternative time periods to reduce culture bias and human error. Three negative controls and three positive controls were established for each temperature under study.
The trials were conducted in 125 mL Erlenmeyer flasks containing 75 mL of marine broth, which were subsequently autoclaved for 20 min at 121° C. All bottles were incubated at either 4° C. or 25° C. on an orbital shaking platform at 150 rpm. Triplicate biocide treatments were established at each temperature at concentrations of 500, 750 and 1000 ppm. At each weekly interval, 2 mL samples were collected at 7, 14 and 21 days from each bottle. These were subjected to a co-extraction of DNA which was measured with qPCR. The gene target in this study was 16s rDNA a conserved gene present in all bacteria and Achaea.

Row | Compound | SRB per mL ([1]; 24 h exposure) [cells per mL] | SRB per mL ([1]; 7 d exposure) [cells per mL] | SRB per mL ([1]; 28 d exposure) [cells per mL] | APB per mL ([2]; 24 h exposure) [cells per mL] | APB per mL ([2]; 7 d exposure) [cells per mL] | APB per mL ([2]; 28 d exposure) [cells per mL] | GHB per mL ([3]; 24 h exposure) [cells per mL] | GHB per mL ([3]; 7 d exposure) [cells per mL] | GHB per mL ([3]; 28 d exposure) [cells per mL] | log reduction of planktonic GHB [3] [log] | further results
1 | CN1CSC(=S)N(C)C1 [Dazomat, Tetrahydro-3,5-dimethyl-2H-1,3,5-thiadiazine-2-thione] | 2.5E+04 | 2.0E+02 | 1.0E+00 | 2.5E+02 | 2.5E+02 | 4.5E+02 | 4.5E+02 | 4.5E+03 | 2.5E+05 | 2.5 | log reduction of planktonic SRB ([1]; exposure time of 24 hours): did not result in a significant reduction; log reduction of APB numbers ([2]; exposure time of 24 hours): 0.5 log
2 | O=CCCCC=O [Glutaraldehyde, Pentane-1,5-dial] |  |  |  |  |  |  |  |  |  |  | fold increase in growth compared to the highest level seen in the other biocides ([4]; 4° C., 500 ppm): 15.8 fold; fold increase in copy number compared to the highest count in the invention formulation biocide flasks ([4]; 25° C., 500 ppm): 670 fold; 7 day DNA (copies) ([4]; 4° C.): 2.60E+04 copies; 14 day DNA (copies) ([4]; 4° C.): 1.11E+08 copies; 21 day DNA (copies) ([4]; 4° C.): 7.22E+07 copies; 7 day DNA (copies) ([4]; 25° C.): 8.85E+04 copies; 14 day DNA (copies) ([4]; 25° C.): 1.00E+03 copies; 21 day DNA (copies) ([4]; 25° C.): 2.51E+10 copies
3 | CC1CN(CN2COC(C)C2)CO1 (stereo not shown) [MBMO, N, N′-Methylene bis(5-methyloxazolidine)] | 9.5E+03 | 4.0E+01 | 1.0E+00 | 7.5E+02 | 7.5E+02 | 4.5E+01 | 9.5E+03 | 4.5E+03 | 2.5E+02 | 1 | further log reduction of GHB numbers ([3]; after 28 days): 2 log
